Experimental data reported in patent publication US10897891B2, “Compositions and methods for prolonged cell storage” (Board of Regents, The University of Texas System, priority 2015, dated 2021).

Legend:
platelets [1] = experiment: Platelet aggregation and shape after cold storage (microscopy, Experiment A); assay type: cell-based, human; conditions: 2% final PEG-400, 5° C., 26 days, rotation 70 cycles per minute
Protocol: Photomicrographs were taken with a Nikon E400 microscope with an Insight 18.2 Color Camera and Spot 5.1 image capture software. No image adjustments were performed. Fluorescent microscopy was performed using a Leica DMIL photomicroscope and Leica LAS V3.8 image acquisition software. No post photographic image adjustments were made.
Platelets are known to change shape and show partial aggregation when chilled. The goal of the initial experiments was to see if this behavior changed when platelets were incubated in the presence of PEG-400. Two standard random donor platelet concentrates, type O, were mixed by connecting the bags, followed by gravity mixing 8 times. This mixture was equally divided by weight into the two original platelet bags and either 10 ml of PBS or 10 ml of PEG-400 in PBS was added to the control and test unit respectively. The final concentration of PEG-400 in the unit was 2%. These units were then gently rotated at 70 cycles per minute, with a 1 inch stroke length, at 5° C., over 26 days. At the end of this time aliquots were examined and photographed. • PBS Control 2% PEG-400 in PBS

platelets [2] = experiment: Hydrogen peroxide induced platelet aggregation (platelet 'aging', Experiment B); assay type: cell-based, human; conditions: 2% PEG-400 in PBS, 1 hr room temperature
Protocol: Platelet aggregation using epinephrine. Ten ml of 24 hr old platelet residual was derived from one platelet unit and split into two 5 ml aliquots in 50 ml tubes. One sample received 10% phosphate buffered saline (PBS) and one 10% PBS containing PEG400 such that the final PEG concentration was 2%. These samples were placed on a flat-bed rotator with a 1 inch stroke, at 70 cycles per min, at 5° C. for 7 days. 100 ul of these platelet suspensions were added to wells of a 96 well U bottom plate. Epinephrine 0.1 mg/ml (Pharmaceutical NDC 0409-4921-34-44-048-DK) was diluted with PBS and 100 ul was added to test wells to give a finial concentration of 10 mcg/ml. The plate was rotated overnight to allow aggregation. The extent of aggregation was read using an ELISA plate reader (Molecular Devises, Vmax) at 690 nm wavelength. Platelets, with and without PEG, were also aggregated by the addition of 10% H2O2. Hydrogen peroxide is not an agonist for the platelet receptor; however exposure to hydrogen peroxide mimics the platelet storage lesion though membrane ageing. In this study, the inventors tested 2 day old residual platelets form one donor unit by splitting the material in to a 24 well cluster plate. […] Table 3 presents additional cryoprotective agents scored for the effect on microscopic degranulation (20× high contrast lighting as above). […]

[3] = test system: macrophage like cell line U937; experiment: Platelet binding to the macrophage like cell line U937 (Experiment E); assay type: cell-based, human; conditions: 2% PEG-400, 5° C. overnight
Protocol: U937 is a cell line derived from a patient with Acute Myelo-Monocytic Leukemia. […] In this binding experiment 5 day old platelets from the blood bank are held in a standard storage media referred to as ACD on a flat-bed shaker under standard conditions of rotation. ‘ACD’ contains […], Sodium Citrate, and Dextrose. These platelets were split into two conditions, control and 2%/0 PEG-400, in a 12 well plate format with a final volume of 100 ul per well. All wells were incubated overnight at 5° C. All wells where then stained with fluorescein Diacetate (Sigma product F7378). This agent was protected from light and 1 mg was dissolved in 10 ml acetone and stored at −70° C. FDA was diluted […] in PBS immediately prior to use (Miyamoto el al., 2000.) All platelet wells received 2.5 ug final per well of fluorescein diacetate (FA) contained in 50 ul PBS. After 1 hr at room temp a further 100 ul of PBS was added and the 12 well plates were centrifuged at 3000 g for 20 min at RT. 150 ul excess fluid was carefully removed from all wells and discarded. Platelets were gently suspended. […] Wells were examined and photographed with an inverted fluorescence microscope. […]
Control conditions had standard 75 ul of ACD suspended platelets, plus 25 μl PBS in the control wells. […] Wells were examined with an inverted fluorescence microscope.

[4] = dogs; cited from earlier work

In the case of Polyethylene glycol [PEG-400], the “platelet aggregation and rod shapes vs PBS control” value (platelets [1]) is reported as “control was observed to be more aggregated and to have more rod shapes than the PEG test platelets”, the “platelet aggregation after 10% hydrogen peroxide vs PBS control” value (platelets [2]) is reported as “less aggregation of the platelets” and the “adsorption of cold stored platelets to U937 cells” value [3] is reported as “substantially block adsorption of cold stored platelets to macrophage like cells”. For the same substance, the “adsorption of cold stored platelets to U937 cells” value ([3]; listed as PEG) was “only a few attached strongly fluorescent platelets”, the toxic endpoint [4] was about 8 g/kg and the “toxic endpoint for the whole animal” value [4] was 0.8%.
